What was measured:
Format in all cases: in vivo, mouse
[1] = tested on: eNOS deficient and their wild type (WT) littermate mice; test: Urinary albumin excretion in STZ-diabetic eNOS deficient and wild type littermate mice; conditions: BEC 2.3 mg/kg/day s.c. infusion 6 weeks, FIG. 14
Method: Experiments were conducted using multiple low doses of STZ (50 mg/kg body weight for 5 days). Arginase inhibition using BEC (2.3 mg/kg/day) or vehicle was administered by continuous subcutaneous infusion for 6 weeks via a mini-osmotic pump. Data is shown for 6 weeks after STZ-induced diabetes.
(§1) Urinary albumin excretion (UAE) was measured by ELISA using Albuwell M (Exocell, Philadelphia, Pa.) as described previously. Blood urea nitrogen (BUN) was measured using (VITROS DT60II chemistry slides; Ortho-Clinical Diagnostics, Rochester, N.Y.). Body composition was determined using LF90 Minispec Time Domain Nuclear Magnetic Resonance Spectrometer (Bruker Optics, Billerica Mass.).
eNOS deficient mice are recommended by the Animal Models of Diabetes Complications Consortium (AMDCC) as an optimal model of diabetic nephropathy. Experiments were conducted in male 6-week-old eNOS deficient and their wild type (WT) littermate mice using multiple low doses of STZ (50 mg/kg body weight for 5 days). Arginase inhibition using BEC (2.3 mg/kg/day) or vehicle was administered by continuous subcutaneous infusion for 6 weeks via a mini-osmotic pump. Renal function was monitored throughout the study.

[2] = tested on: STZ-induced diabetic mice (DBA background); test: 24-hr urinary albumin excretion in STZ-induced diabetic mice (DBA background); conditions: BEC 2.3 mg/kg/day 6 weeks, vs vehicle-treated diabetic, FIG. 6
Method: After an overnight fast, animals were given multiple low doses of vehicle or STZ (Sigma, St. Louis, Mo.; 50 mg/kg body wt dissolved in lactated Ringers solution) via IP injection. Mice were treated with the arginase-specific inhibitor BEC (2.3 mg/kg/day) or vehicle via osmotic minipump for 6 weeks. Urine was collected for measurement of UAE after 6 weeks. Data are presented as mean±SEM.
(§2) Experiments were conducted in male Ins2^Akita and their wild type (WT) littermate mice (DBA background; Jackson Laboratories) starting at 5 weeks of age until 14 weeks of age and were approved by the Pennsylvania State University College of Medicine Institutional Animal Care and Use Committee (PSU IACUC). […]
(§3) BEC, a selective arginase antagonist (2.3 mg/kg/day, Cayman Chemical, Ann Arbor, Mich., USA), or vehicle (phosphate-buffered saline) was administered by continuous subcutaneous infusion for 9 weeks (in Ins2^Akita experiments) or for 6 wks (in STZ DBA mice experiments) via a mini-osmotic pump (Alzet; Durect Corporation, Palo Alto, Calif., USA) as described in CIRCULATION RESEARCH, 102(8):923-32, Apr. […] The condition of mice and body weight were monitored daily following the pump implantation.
Urinary albumin excretion (UAE) was measured by ELISA using Albuwell M (Exocell, Philadelphia, Pa.) as described previously. […]

[3] = tested on: Ins2^Akita and their wild type littermate mice; test: Characteristics of Ins2^Akita and wild type littermate mice (glucose, body weight, kidney weight, body composition) with or without arginase inhibitor; conditions: BEC 2.3 mg/kg/day 9 weeks, 14-week of age, mean ± SEM
Method: Experiments were conducted in male Ins2^Akita and their wild type (WT) littermate mice (DBA background; Jackson Laboratories) starting at 5 weeks of age until 14 weeks of age and were approved by the Pennsylvania State University College of Medicine Institutional Animal Care and Use Committee (PSU IACUC). The Ins2^Akita mice were recommended by the Animal Models of Diabetes Complications Consortium as an optimal model of diabetic nephropathy, and the mice developed hyperglycemia at 3 weeks of age. Additional experiments were conducted in male 6-week-old mice (DBA background; Jackson Laboratories), arginase-2 (Arg2) wild type […] mice on C57B1/6 background weighing 20-22 g and were approved by the PSU IACUC. After an overnight fast, animals were given multiple low doses of vehicle or STZ (Sigma, St. Louis, Mo.; 50 mg/kg body wt dissolved in lactated Ringers solution) via intraperitoneal injection.
BEC, a selective arginase antagonist (2.3 mg/kg/day, Cayman Chemical, Ann Arbor, Mich., USA), or vehicle (phosphate-buffered saline) was administered by continuous subcutaneous infusion for 9 weeks (in Ins2^Akita experiments) or for 6 wks (in STZ DBA mice experiments) via a mini-osmotic pump (Alzet; Durect Corporation, Palo Alto, Calif., USA) as described in CIRCULATION RESEARCH, 102(8):923-32, Apr. 25, 2008. The osmotic pump was incubated in phosphate buffer saline (PBS) for 60-h at 37° C. prior to implantation and was implanted dorsally between shoulders. The condition of mice and body weight were monitored daily following the pump implantation.
as §1, with “Mass.). […]” for “Mass.).”

[4] = tested on: STZ-induced diabetic mice; test: Glomerular macrophage recruitment, Mac-2 staining, STZ-induced diabetic mice; conditions: arginase inhibitor 6 weeks, p<0.0001 vs vehicle-treated diabetic
Method: as §2, with “IACUC). The Ins2^Akita mice were recommended by the Animal Models of Diabetes Complications Consortium as an optimal model of diabetic nephropathy, and the mice developed hyperglycemia at 3 weeks of age.” for “IACUC).”
as §3
Immunohistochemistry for macrophages was performed in mice using rat anti-mouse Mac-2 monoclonal antibody; clone M3/38 (Cedarlane, Burlington, N.C., US) on paraffin sections. […] The number of glomerular macrophages were counted in twenty glomeruli per section (number of macrophages in glomeruli divided by the number of glomeruli) in blinded fashion under 40× magnification and averaged.

Ins2^Akita mice = test: 24-hr urinary albumin excretion (UAE) in Ins2^Akita mice; conditions: BEC 2.3 mg/kg/day 9 weeks, at 14 weeks of age, vs vehicle, FIG. 1
Method: The Ins2^Akita and their wild type (WT) littermate mice were treated with the arginase-specific inhibitor S-(2-Boronoethyl)-L-cysteine (BEC) (2.3 mg/kg/day) or vehicle via osmotic minipump for 9 weeks. Urine was collected for measurement of UAE before treatment (at 5 weeks of age) and after treatment (at 14 weeks of age). In FIG. 1, the open bars are vehicle treated groups and filled bars are arginase inhibitor treated groups. Data are presented as mean±SEM. […]
as §3
as §1, with “Mass.). […]” for “Mass.).”

[5] = tested on: STZ-induced diabetic mice (DBA background); test: Renal histological changes, PAS staining, STZ-induced diabetic mice (DBA background)
Source text: Sections were stained with Periodic acid-Schiff (PAS) and all glomeruli were examined at 40×. Images were taken with 100× (oil) objective with a total magnification of 1000×. […] Adjacent tubular basement membranes stain PAS positive as well.
Kidneys from mice were fixed in 4% paraformaldehyde, embedded in paraffin, and 3-μm sections were cut. Sections were stained with Periodic acid-Schiff (PAS) stain and all glomeruli were examined at 40× (TKC) in a masked fashion. All images were obtained with an Olympus BX51 microscope and DP71 digital camera using MicroSuite Basic 2.6 imaging software. Images were taken with 100× (oil) objective with a total magnification of 1000×. Semiquantitative scores (0-4+) were assigned based on the masked reading, as previously described. Each glomerulus on a single section was graded from 0 to 4+, where 0 represents no lesion, and 1, 2, 3, and 4+ represent mesangial matrix expansion or sclerosis, involving […] of the glomerular tuft area, respectively.

arginase 2 mRNA = test: Kidney arginase 2 mRNA expression by RT-PCR in Ins2^Akita mice; conditions: whole kidney RNA, Ins2^Akita mice at 14 weeks of age; normalized to GAPDH, relative to control; FIG. 5
Method: FIGS. 5A and 5B show the effect of arginase inhibition on arginase 2 mRNA expression in Ins2^Akita mice. Real-time polymerase chain reaction (RT-PCR) was performed on whole mouse kidney total RNA isolated at 14 weeks of age. […] In FIG. 5B, expression of arginase 2 mRNA was normalized to GAPDH and data were calculated as expression relative to control.
Total RNA was extracted from mouse kidneys using RNeasy Mini Kit (Qiagen, Gumbh, Hilden, Germany). Single-strand cDNA was synthesized using iScript cDNA Synthesis Kits (Bio-Rad, Hercules, Calif.) for two-step real-time polymerase chain reaction (RT-PCR). Gene-specific primers for ARG1 and ARG2 were designed using Beacon Designer Probe/Primer Design Software (Premier Biosoft International, Palo Alto, Calif.). Specificity of the PCR products was verified by melting curve analysis. Quantitative real-time PCR was performed using a Bio-Rad CFX96 system (Hercules, Calif.). Reactions were performed in duplicate, and threshold cycle numbers were averaged. Samples were calculated with normalization to GAPDH.
RT-PCR was performed on whole mouse kidney total RNA isolated at 14 weeks of age. […] In FIG. 5B, expression of arginase 2 mRNA was normalized to GAPDH and data were calculated as expression relative to control.

[6] = tested on: Ins2^Akita and their wild type littermate mice; test: Glomerular macrophage recruitment, Mac-2 immunohistochemistry, Ins2^Akita experiment; conditions: 14 weeks of age
Method: FIGS. 2A-2D show the effect of arginase inhibition on macrophage recruitment in Ins2^Akita mice using immunohistochemistry.
Immunohistochemistry for macrophages was performed in mice using rat anti-mouse Mac-2 monoclonal antibody; clone M3/38 (Cedarlane, Burlington, N.C., US) on paraffin sections. Sections were incubated with primary antibody (50 μg/ml) followed by a biotinylated goat IgG anti-rat (Vector Laboratories, Burlingame, Calif.) secondary antibody according to the manufacturer's protocol. Sections were viewed using an Olympus BX51 microscope and DP71 digital camera using MicroSuite Basic 2.6 imaging software. Images were taken with 100× (oil) objective with a total magnification of 1000×. The number of glomerular macrophages were counted in twenty glomeruli per section (number of macrophages in glomeruli divided by the number of glomeruli) in blinded fashion under 40× magnification and averaged.
To determine whether arginases are critical for kidney macrophage infiltration in diabetic nephropathy, the distribution and quantitation of macrophages in kidneys by immunohistochemistry (Mac-2 positive macrophages) were analyzed. […]

[7] = tested on: Ins2^Akita and their wild type littermate mice; test: Blood urea nitrogen (BUN) in Ins2^Akita and wild type littermate mice; conditions: BEC 2.3 mg/kg/day 9 weeks, 14-week of age, mean ± SEM
Method: as §2, with “IACUC). The Ins2^Akita mice were recommended by the Animal Models of Diabetes Complications Consortium as an optimal model of diabetic nephropathy, and the mice developed hyperglycemia at 3 weeks of age.” for “IACUC).”
as §3
as §1, with “Mass.). […]” for “Mass.).”

[8] = control (wild type littermate) mice

SMILES: N[C@@H](CSCCB(O)O)C(=O)O [BEC, S-(2-Boronoethyl)-L-cysteine]
- albuminuria (UAE) ([1]; diabetic WT mice (STZ), vs vehicle): significantly reduced
- UAE ([1]; diabetic eNOS deficient mice (STZ), vs vehicle treated diabetic mice): failed to reduce
- albuminuria (24-hr UAE) [2]: significantly reduced
- Kidney weight ([3]; Ins2^Akita mice): 269 ± 10 mg
- KW/BW (kidney weight to body weight ratio) [3, 8]: 8.1 ± 0.1 mg/g
- Kidney weight [3, 8]: 262 ± 4 mg
- glomerular macrophage recruitment (Mac-2 staining) [4]: 1.2±0.06 macrophages/glomerulus
- Albuminuria (urinary albumin excretion) (Ins2^Akita mice): significantly reduced
- PAS positive material, share of the mesangial matrix ([5]; representative PAS section from arginase inhibitor treated STZ mouse, FIG. 7C): < 25%
- glomerular changes (PAS, glomerular cellularity and mesangial expansion) score ([5]; semiquantitative score 0-4+, STZ-induced diabetic mice after 6 weeks, p<0.05 vs vehicle-treated STZ): 1.6±0.08
- increase in arginase 2 mRNA expression (arginase 2 mRNA): ~1.5 fold
- glomerular macrophage recruitment (Mac-2 positive) ([6]; Ins2^Akita mice treated with arginase inhibitor, p<0.0001 vs vehicle-treated Ins2^Akita, FIG. 2D): 0.9±0.14 macrophages/glomerulus
- glomerular macrophage recruitment (Mac-2 positive) ([6]; control mice treated with arginase inhibitor, FIG. 2C): 0.29±0.03 macrophages/glomerulus
- BUN ([7]; Ins2^Akita mice): 28 ± 3
- BUN [7, 8]: 28 ± 3

Source: patent publication US20120315281A1, “TREATMENT OF RENAL INJURY” (THE PENN STATE RESEARCH FOUNDATION, priority 2011, published 2012)
